Where two headings read alike, the source gives them in different places.
Key:
[1] = tested on: P. aeruginosa strain CFS-1292; assay: MIC in presence of mouse, rat, rabbit and human serum ([…] each); format: cell-based, Pseudomonas aeruginosa; conditions: P. aeruginosa CFS-1292
Experimental: The activity of several Chp peptides against P. aeruginosa strain CFS-1292 in animal serum was evaluated. […] Rat, mouse, and rabbit serum were all obtained from pooled gender samples.

[2] = tested on: carbapenem-resistant P. aeruginosa clinical isolate CFS-1292; assay: MIC by modified CLSI broth microdilution against P. aeruginosa CFS-1292 (CAA, CAA + human serum); format: cell-based, Pseudomonas aeruginosa; conditions: for MIC (μg/mL) against CFS-1292 in 100% CAA (1st run/2nd run): 1st run or single value
[3] = tested on: Mycobacterium tuberculosis strains
Experimental: MIC values for various Chp peptides were determined using the CLSI method for broth microdilution in 96-well microtiter format.
Next, MIC values for various Chp peptides were determined using the CLSI method above for broth microdilution in 96-well microtiter format for two different Mycobacterium tuberculosis strains. The MIC was determined as explained above for the NTM strains.

Pseudomonas aeruginosa = assay: microbe, parasite or virus in culture; format: cell-based; conditions: P. aeruginosa isolates (n per peptide in table)
[4] = tested on: P. aeruginosa strain CFS-1292; assay: MIC in presence of divalent cations (calcium chloride, magnesium sulfate); format: cell-based, Pseudomonas aeruginosa
Experimental: Next, Chp peptides were evaluated in the presence of different divalent cations. […]; (2) in the presence of 2 mM calcium chloride alone; (3) in the presence of 1 mM magnesium sulfate alone; and (4) in the presence of both 2 mM calcium chloride and 1 mM magnesium sulfate. […]

[5] = tested on: M. kansasii Hauduroy ATCC 12478; assay: 45 hr MIC against M. kansasii (NTM), Mueller Hinton broth; format: cell-based, Mycobacterium kansasii
M. fortuitum = assay: 45 hr MIC against M. fortuitum (NTM); format: cell-based, Mycobacterium fortuitum; conditions: M. fortuitum subsp. Fortuitum da Costa Cruz. ATCC 6841
M. avium = assay: 45 hr MIC against M. avium (NTM); format: cell-based, Mycobacterium avium; conditions: M. avium Chester ATCC 700898
[6] = Stability assessment in 100% CAA; format: in vitro ADME; set-up: unit not given beside the values
Experimental: Stability was assessed after incubation in 100% human serum at 37° C. after 10 minutes, 1 hour, and 2 hours.
Stability assessment was further conducted in 100% CAA and rabbit serum using the same methodology discussed above.

Escherichia coli = assay: microbe, parasite or virus in culture; format: cell-based; conditions: for MIC50 / MIC100 / MIC Range: E. coli isolates (n per peptide in table); for MIC: Escherichia coli ATCC 25922, CAA supplemented with human serum
In short: (§1)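 Medium: CAA with added human serum. Peptides tested for minimal inhibitory concentration against each strain.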

Enterobacter cloacae = assay: microbe, parasite or virus in culture; format: cell-based; conditions: for MIC50 / MIC100 / MIC Range: E. cloacae isolates (n per peptide in table); for MIC: Enterobacter cloacae ATCC 13047, CAA supplemented with human serum
In short: as §1

Klebsiella pneumoniae = format: cell-based; conditions: for MIC50 / MIC100 / MIC Range: K. pneumoniae isolates (n per peptide in table); for MIC: Klebsiella pneumoniae HM-44, CAA supplemented with human serum
Experimental: (§2) Determination of Minimal Inhibitory Concentrations (MIC).
(§3) Additional MIC testing was performed for several peptides against the ESKAPE pathogens Escherichia coli, Enterobacter cloacae, Klebsiella pneumoniae, and Acinetobacter baumannii, in CAA supplemented with human serum (Table D).

[7] = tested on: Pseudomonas aeruginosa, Escherichia coli, Enterobacter cloacae, Klebsiella pneumoniae, and Acinetobacter baumannii; assay: MIC against a range of Gram-negative organisms (statements covering several species); format: cell-based; conditions: Tables 40-44 isolates
Experimental: as §2, §3

[8] = tested on: carbapenem-resistant bacterial strains; assay: organism not typed; format: cell-based
Text: as §2

[9] = tested on: P. aeruginosa strain CFS-1292; assay: MIC in presence and absence of NaCl (140 mM); format: cell-based, Pseudomonas aeruginosa; conditions: for Fold change in MIC: CAA + 140 mM NaCl versus CAA without added NaCl; for MIC, CAA + 140 mM NaCl / MIC, CAA (no added NaCl): P. aeruginosa CFS-1292
Experimental: Certain Chp peptides were evaluated over a range of physiological NaCl levels and pH values, and were further evaluated for activity in the presence of various divalent cations.

M. scrofulaceum = assay: 45 hr MIC against M. scrofulaceum (NTM); format: cell-based, Mycobacterium scrofulaceum; conditions: M. scrofulaceum Prissick and Masson ATCC 19981
[10] = tested on: P. aeruginosa strain CFS-1292; assay: MIC in presence and absence of Survanta pulmonary surfactant; format: cell-based, Pseudomonas aeruginosa
M. intracellulare = assay: 45 hr MIC against M. intracellulare (NTM); format: cell-based, Mycobacterium intracellulare; conditions: M. intracellulare (Cuttino and McCabe) Runyon ATCC 13950
M. smegmatis = assay: 45 hr MIC against M. smegmatis (NTM), Mueller Hinton broth; format: cell-based, Mycobacterium smegmatis
S. maltophilia = assay: MIC against S. maltophilia isolates; format: cell-based, Stenotrophomonas maltophilia
In short: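 MIC in μg/mL for Chp peptides across several S. maltophilia isolates, n denoting the number of isolates tested.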

[11] = tested on: P. aeruginosa strain CFS-1292; assay: MIC at pH 6, pH 7 and pH 8; format: cell-based, Pseudomonas aeruginosa
Experimental: The Chp peptides were further evaluated at varying pH levels. The MIC values were determined at pH 6, pH 7, and pH 8 for 18 different Chp peptides against P. aeruginosa strain CFS-1292. […]

Acinetobacter baumannii = assay: microbe, parasite or virus in culture; format: cell-based; conditions: for MIC50 / MIC100 / MIC Range: A. baumannii isolates (n per peptide in table); for MIC: Acinetobacter baumannii ATCC BAA 747, CAA supplemented with human serum
[12] = Mycobacterium tuberculosis (Zopf) Lehmann and Neumann ATCC 25177
[13] = Mycobacterium tuberculosis (Zopf) Lehmann and Neumann ATCC 35817
[14] = carbapenem-resistant isolate PA19
[15] = carbapenem-resistant isolate PA20
[16] = carbapenem-resistant isolate PA21
[17] = carbapenem-resistant isolate PA22
[18] = carbapenem-resistant isolate PA23
[19] = carbapenem-resistant isolate PA24
[20] = carbapenem-resistant isolate WLC-452
[21] = CAA media + 0.19 mg/mL Survanta
[22] = S. maltophilia isolates (n per peptide in table)

MARSRRRMSKRSSRRSFRKYAKTHKKNFKARSMRGGIRL [Ecp3]
>32 µg/mL: MIC BALB/C Mouse Serum [1]
0.25 µg/mL: MIC50 (Acinetobacter baumannii)
8 µg/mL: MIC New Zealand White Rabbit Serum [1] | MIC Sprague Dawley Rat Serum [1] | MIC [3, 13] | 45 hr MIC (M. intracellulare) | 45 hr MIC (M. smegmatis; M. smegmatis MC^2 155, Run #2)
4: Fold change in MIC [9]
good activity: activity (good = MIC100 of ≤4) against all of P. aeruginosa, K. pneumoniae, A. baumannii, E. cloacae, and E. coli [7]
2 µg/mL: MIC50 (Pseudomonas aeruginosa) | MIC ([4]; CAA media + 1 mM MgSO4) | MIC ([4]; CAA media + 2 mM CaCl2) | MIC ([4]; CAA media + + 1 mM MgSO4) | 45 hr MIC [5] | 45 hr MIC (M. fortuitum) | MIC100 (Escherichia coli) | MIC100 (Klebsiella pneumoniae) | MIC [8, 18] | MIC [8, 19] | MIC, CAA + 140 mM NaCl [9] | 45 hr MIC (M. scrofulaceum) | MIC ([11]; pH 6) | MIC ([11]; pH 7) | MIC ([11]; pH 8) | MIC (Acinetobacter baumannii)
0.5 to 4 µg/mL: MIC Range (Pseudomonas aeruginosa) | MIC Range (Klebsiella pneumoniae)
>8 µg/mL: MIC100 (S. maltophilia; [22])
0.5: MIC (100% CAA) [6]
1 µg/mL: MIC ([4]; CAA media alone) | 45 hr MIC (M. avium) | MIC50 (Escherichia coli) | MIC (Escherichia coli) | MIC50 (Klebsiella pneumoniae) | MIC [8, 20] | MIC ([11]; CAA media (pH 7))
16 µg/mL: MIC [3, 12]
0.25 to 4 µg/mL: MIC Range (Enterobacter cloacae)
4 µg/mL: MIC100 (Pseudomonas aeruginosa) | MIC100 (Enterobacter cloacae) | MIC (Enterobacter cloacae) | MIC [8, 15] | MIC [8, 16] | MIC [8, 17] | 45 hr MIC (M. smegmatis; M. smegmatis MC^2 155, Run #1) | MIC50 (S. maltophilia; [22])
0.5 µg/mL: MIC CAA [1] | MIC Human Serum [1] | MIC (μg/mL) against CFS-1292 in 100% CAA (1st run/2nd run) [2] | MIC (μg/mL) against CFS-1292 in CAA + […] human serum [2] | MIC50 (Enterobacter cloacae) | MIC (Klebsiella pneumoniae) | MIC [8, 14] | MIC, CAA (no added NaCl) [9] | MIC [10, 21] | MIC ([10]; CAA media + […] Survanta) | MIC ([10]; CAA media alone) | MIC100 (Acinetobacter baumannii)
0.125 to 0.5 µg/mL: MIC Range (Acinetobacter baumannii)
0.125 to 8 µg/mL: MIC Range (Escherichia coli)

MRRRRLSRRTSRRFFRKGLKVRRRNLRARPMRGGFRI [Unp2]
0.25 to 2 µg/mL: MIC Range (Enterobacter cloacae) | MIC Range (S. maltophilia; [22])
0.25 to 1 µg/mL: MIC Range (Klebsiella pneumoniae) | MIC Range (Acinetobacter baumannii)
8 µg/mL: MIC Sprague Dawley Rat Serum [1]
2 µg/mL: 45 hr MIC [5] | 45 hr MIC (M. fortuitum) | MIC [8, 16] | MIC, CAA + 140 mM NaCl [9] | 45 hr MIC (M. smegmatis; M. smegmatis MC^2 155, Run #1)
>32 µg/mL: MIC BALB/C Mouse Serum [1]
0.125 µg/mL: MIC (Klebsiella pneumoniae)
1 µg/mL: MIC50 (Pseudomonas aeruginosa) | MIC100 (Pseudomonas aeruginosa) | MIC100 (Escherichia coli) | MIC100 (Klebsiella pneumoniae) | MIC [8, 15] | MIC [8, 17] | MIC [8, 18] | MIC [8, 19] | 45 hr MIC (M. intracellulare) | MIC100 (S. maltophilia; [22]) | MIC (Acinetobacter baumannii)
16 µg/mL: MIC [3, 12] | MIC (Enterobacter cloacae)
4 µg/mL: MIC New Zealand White Rabbit Serum [1] | MIC [3, 13] | 45 hr MIC (M. scrofulaceum) | 45 hr MIC (M. smegmatis; M. smegmatis MC^2 155, Run #2)
0.25 µg/mL: MIC ([4]; CAA media + 1 mM MgSO4) | MIC ([4]; CAA media + 2 mM CaCl2) | MIC ([4]; CAA media alone) | MIC50 (Escherichia coli) | MIC (Escherichia coli) | MIC50 (Enterobacter cloacae)
0.25: MIC (100% CAA) [6]
good activity: activity (good = MIC100 of ≤4) against all of P. aeruginosa, K. pneumoniae, A. baumannii, E. cloacae, and E. coli [7]
0.5 µg/mL: MIC CAA [1] | MIC Human Serum [1] | MIC (μg/mL) against CFS-1292 in 100% CAA (1st run/2nd run) [2] | MIC (μg/mL) against CFS-1292 in CAA + […] human serum [2] | MIC ([4]; CAA media + + 1 mM MgSO4) | 45 hr MIC (M. avium) | MIC100 (Enterobacter cloacae) | MIC50 (Klebsiella pneumoniae) | MIC [8, 14] | MIC [8, 20] | MIC, CAA (no added NaCl) [9] | MIC [10, 21] | MIC ([10]; CAA media + […] Survanta) | MIC ([10]; CAA media alone) | MIC50 (S. maltophilia; [22]) | MIC ([11]; CAA media (pH 7)) | MIC ([11]; pH 6) | MIC ([11]; pH 7) | MIC ([11]; pH 8) | MIC50 (Acinetobacter baumannii) | MIC100 (Acinetobacter baumannii)
active: activity against S. maltophilia (S. maltophilia; Table 45 isolates)
4: Fold change in MIC [9]
0.125 to 1 µg/mL: MIC Range (Escherichia coli)
0.5 to 2 µg/mL: MIC Range (Pseudomonas aeruginosa)
